This is an account of results in US7745492B2, “Carboxamido opioid compounds” (Janssen Pharmaceutical, priority 2004, dated 2010).

The target in series [1] is recombinant human P450 2D6 (Homo sapiens, UniProt P10635). Put plainly: Recombinant human P450 isoform inhibition, 2D6. The class given is in vitro ADME. As to the method: (§1) In a study using recombinant human P450 isoforms, the compound was only a weak inhibitor (IC50>10 μM) of all isoforms tested, 3A4, 2D6, 2C9, 2C19, and 1A2.
Series [2] deals with recombinant human P450 2C19 (Homo sapiens, UniProt P33261). Description: Recombinant human P450 isoform inhibition, 2C19. The class given is in vitro ADME. The method, then:
as §1

Series [3] can be described thus: Metabolic stability in rat liver microsomes. The class given is in vitro ADME. The note with it: 10 min incubation. The method, then: The metabolic stability of Compound 3 was investigated using several approaches. The compound was incubated with liver microsomes from mouse, rat, dog and human and the percent of compound remaining after ten min quantified. The compound was metabolically robust in all species tested.

Series [4] has as its target T1, recombinant human P450 1A2 (Homo sapiens, UniProt P05177).
T1 sequence (P05177 1-516): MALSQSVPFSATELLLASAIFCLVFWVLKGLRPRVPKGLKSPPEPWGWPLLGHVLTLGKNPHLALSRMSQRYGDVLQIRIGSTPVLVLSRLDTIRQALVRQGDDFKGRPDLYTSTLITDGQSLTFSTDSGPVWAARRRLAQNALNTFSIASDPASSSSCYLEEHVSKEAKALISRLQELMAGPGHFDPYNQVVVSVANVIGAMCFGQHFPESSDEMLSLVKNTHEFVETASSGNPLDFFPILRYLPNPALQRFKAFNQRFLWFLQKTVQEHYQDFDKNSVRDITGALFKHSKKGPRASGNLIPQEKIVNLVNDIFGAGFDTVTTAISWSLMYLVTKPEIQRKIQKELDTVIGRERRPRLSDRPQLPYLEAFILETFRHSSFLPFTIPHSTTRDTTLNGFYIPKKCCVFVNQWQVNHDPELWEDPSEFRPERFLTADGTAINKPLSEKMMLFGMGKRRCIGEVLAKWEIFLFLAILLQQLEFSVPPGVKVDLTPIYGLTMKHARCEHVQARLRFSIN
Put plainly: Recombinant human P450 isoform inhibition, 1A2. Format: in vitro ADME. The method, then: as §1

The nature of series [5]: Glucuronidation in human liver microsomes. Particulars: in vitro. The class given is in vitro ADME.
In a further series the test system is Male Sprague Dawley rats. Put plainly: Spinal nerve ligation (SNL) model of neuropathic pain, mechanical allodynia (Von Frey). Format: in vivo. Particulars: rat, at 2 h. The method, then: Spinal Nerve Ligation (SNL) Model of Neuropathic Pain
Male Sprague Dawley rats weighing 145 to 165 g (approximately 6 weeks of age) were obtained from Harlan (Indianapolis, Ind.). Food and water were provided ad lib and a 12 h light and 12 h dark cycle were maintained. Animals were group housed under specific pathogen-free, barrier maintained environment and were allowed to acclimate for no less than 1 week. Following surgery, animals were housed individually in solid bottom polycarbonate cages with automatic watering devices at 22° C. and a relative humidity of 60%. All animals received Harland Tekland Diet # 8604.
Anesthesia was induced using isoflurane (IsoVet™) inhalant in an induction chamber (3-5% in 2 L/min of O2). Once recumbent, the animal was removed and placed into a nose cone which delivered inhalant isoflurane (0.5-2.5% at 2 L/min Of O2). The dorsal pelvic area was shaved and scrubbed aseptically with chlorhexidine scrub, 70% alcohol, and a 5% chlorhexidine solution. The animal was held in ventral recumbency on a heating pad, and the surgical procedure described by Kim and Chung (1992) was performed. The left paraspinal muscles were separated from the spinous processes at the level of Lumbar 4 to Sacral 2 (L4-S2). Once the musculature was retracted, the L6 transverse process was removed using a small rongeur. L4 and L5 spinal nerves could then be visualized. L5 was then isolated and ligated using 6-0 silk suture material. Warm saline and a dose of long-acting antibiotic was administered immediately post-op before recovery form anesthesia.
At least one week following surgery, animals were individually placed in a Lucite testing chamber with a wire mesh bottom. Mechanical (tactile) allodynia was measured by recording the pressure at which the affected paw was withdrawn from graded stimuli (Von Frey hairs ranging from 4.0 to 148.1 mN equivalent to 0.25 to 15 g of pressure) applied to the plantar surface of the paw (between the footpads) according to the procedure of Chaplan et. al (1994) in order to calculate paw withdrawal threshold (PWT). Normal rats can withstand at least 15 g of pressure without responding. SNL rats can respond to as little as 0.25 g of pressure. Rats were included in this study only if their PWT was below 4.0 g.
Animals were used for compound testing between 2 weeks and 8 weeks post-operatively. Animals were always pre-tested for baseline withdrawal threshold on the day of testing. Following a 16 h fast, PWT was evaluated at 30 min, 1 h, 2 h, and 4 h post-dosing. Dose-response studies were conducted at the time of peak effect. Studies were conducted in a blinded manner.
Data were normalized and results were presented as % MPE (maximum possible effect) of the drug.

Series [6] deals with spinal nerve ligated rats. Put plainly: Investigation of tolerance development to antiallodynic effect. Format: in vivo, rat. Particulars: dosing for five days, evaluated days one and five. As to the method: Investigation of Tolerance Development
The development of tolerance to the analgesic effect of mu opioid compounds is well known. The development of tolerance to the antiallodynic effect of the Compound 3 was investigated by administering the compound to spinal nerve ligated rats for five days. The antiallodynic effect of the compound was evaluated on days one and five.

The target in the next series is T2, Human mu opioid (Homo sapiens, UniProt P35372).
T2 construct: host or cells: CHO cell membranes
Description: [35S]GTPγS binding assay in human mu opioid-CHO cell membranes. Format: biochemical. The method, then: [^35S]GTPγS Binding Assay in Human mu opioid-CHO Cell Membranes
Human mu-CHO cell membranes were purchased from Receptor Biology, Inc. (Baltimore, Md.). About 10 mg/ml of membrane protein was suspended in 10 mM TRIS-HCl, pH 7.2, 2 mM EDTA, 10% sucrose.
Membranes were maintained at 4-8° C. 1 ml of membranes was added into 15 ml cold assay buffer, containing 50 mM HEPES, pH 7.6, 5 mM MgCl2, 100 mM NaCl, 1 mM DTT and 1 mM EDTA. The membrane suspension was homogenized with a Polytron 2 times and centrifuged at 3000 rpm for 10 min. The supernatant was then centrifuged at 18,000 rpm for 20 min. The pellet was resuspended in 10 ml assay buffer with a Polytron.
The pellet membranes (20 μg/ml) were preincubated with Scintillation Proximity Assay beads (SPA, 10 mg/ml) at 25° C. for 45 min in the assay buffer. The SPA beads (5 mg/ml) coupled with membranes (10 μg/ml) were then incubated with 0.5 nM [^35S]GTPγS in the same HEPES buffer containing 50 μM GDP in total volume of 200 μl. A range of concentrations of receptor agonists were used to stimulate [^35S]GTPγS binding. The basal binding was tested in the absence of agonist and non-specific binding was tested in the presence of 10 μM unlabeled GTPγS. Radioactivity was quantified on a Packard TopCount.
Data were Calculated as Follows: % of basal=(stimulated−non-specific)*100/(basal−non specific) % Inhibition=(% Basal of 1 μM DAMGO−% Basal of compound)*100/(% Basal of 1 μM DAMGO−100)
EC50 values were calculated using the Prism program.

T2 sequence (P35372 whole entry): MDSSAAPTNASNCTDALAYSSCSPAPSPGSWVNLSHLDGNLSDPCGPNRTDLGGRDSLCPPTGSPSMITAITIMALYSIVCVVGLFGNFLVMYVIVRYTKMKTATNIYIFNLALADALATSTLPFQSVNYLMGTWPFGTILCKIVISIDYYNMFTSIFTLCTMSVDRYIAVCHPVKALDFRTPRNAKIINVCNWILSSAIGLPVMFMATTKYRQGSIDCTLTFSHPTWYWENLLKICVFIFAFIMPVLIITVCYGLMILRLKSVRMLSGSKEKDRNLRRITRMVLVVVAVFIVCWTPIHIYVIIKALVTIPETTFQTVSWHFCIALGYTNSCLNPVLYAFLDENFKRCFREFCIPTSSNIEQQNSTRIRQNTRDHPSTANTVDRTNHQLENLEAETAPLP
Chain of recombinant human P450 2D6 (P10635 whole entry, canonical isoform): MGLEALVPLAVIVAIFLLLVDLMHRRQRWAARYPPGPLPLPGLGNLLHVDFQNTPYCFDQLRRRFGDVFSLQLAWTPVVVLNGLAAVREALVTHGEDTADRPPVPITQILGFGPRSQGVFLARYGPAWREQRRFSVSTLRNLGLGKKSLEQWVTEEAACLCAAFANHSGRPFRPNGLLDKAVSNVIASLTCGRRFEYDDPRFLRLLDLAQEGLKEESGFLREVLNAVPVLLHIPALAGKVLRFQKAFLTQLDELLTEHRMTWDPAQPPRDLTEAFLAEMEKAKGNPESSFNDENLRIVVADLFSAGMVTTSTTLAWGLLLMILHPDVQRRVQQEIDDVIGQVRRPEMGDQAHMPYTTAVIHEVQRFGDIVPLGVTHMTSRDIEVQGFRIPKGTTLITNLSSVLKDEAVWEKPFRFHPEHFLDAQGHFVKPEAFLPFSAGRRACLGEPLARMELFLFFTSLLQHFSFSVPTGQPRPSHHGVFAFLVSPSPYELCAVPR
Chain of recombinant human P450 2C19 (P33261 whole entry, canonical isoform): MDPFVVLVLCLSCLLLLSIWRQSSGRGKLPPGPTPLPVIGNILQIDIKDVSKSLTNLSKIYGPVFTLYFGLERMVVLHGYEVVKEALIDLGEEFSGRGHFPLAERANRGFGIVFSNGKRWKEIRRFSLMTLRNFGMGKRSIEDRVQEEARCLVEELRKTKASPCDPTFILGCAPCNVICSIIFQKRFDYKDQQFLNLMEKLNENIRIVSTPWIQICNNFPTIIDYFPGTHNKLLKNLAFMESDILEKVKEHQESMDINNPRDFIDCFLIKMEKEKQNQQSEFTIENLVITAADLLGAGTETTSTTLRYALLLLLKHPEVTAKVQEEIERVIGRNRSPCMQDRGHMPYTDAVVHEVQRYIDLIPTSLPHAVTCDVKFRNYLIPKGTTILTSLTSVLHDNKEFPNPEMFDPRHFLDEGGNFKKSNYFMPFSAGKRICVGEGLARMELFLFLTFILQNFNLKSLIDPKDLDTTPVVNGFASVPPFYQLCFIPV

With `CN(C)C[C@H]1CCCC[C@]1(O)c1cccc(C(N)=O)c1` (single isomer, unassigned) [Cpd 3], the IC50 in series [1], in series [2] and in series [4] was greater than 10 µM in each case. Moreover, the “% remaining after 10 min” value in series [3] is 94.5%. Moreover, the Glucuronidation result in series [5] was “no glucuronidation of the compound was detected”. Besides, the ED50 with Male Sprague Dawley rats amounted to 17 mg/kg. Also, the “Development of tolerance to the antiallodynic effect” value in series [6] is reported as “did not diminish the antiallodynic effect”. Besides, the EC50 on Human mu opioid came to 0.167 µM. Further, the “Mu opioid GTPγS relative efficacy” value at Human mu opioid is listed as 75%.
